Marks after values point to notes of the source that are not given here.
How the values were obtained:
[1] = tested on: smooth muscle cells of rat aorta; assay: In vivo proliferation of smooth muscle cells of rat aorta after mechanical de-endothelialization (anti-BrDU positive nuclei); set-up: species or system Wistar rat; conditions: for +Nuclei/total nuclei % (anti-bromodeoxyuridine positive): 15 days after de-endothelialization, PLC 120 mg/Kg or Enalapril 1 mg/Kg p.c. die, ± s.e.m., preliminary results
Method: (§1) Wistar male rats, weighing between […], were used for the experiments. The rats were anaesthetised with Nembutal i.p. (35 mg/kg body weight) and the thoracic portion of aorta was submitted to endothelium mechanical removal with Fogarty 2F balloon probe (Baxter USA), according to the Baugartner and Studer method(1966) with minor modification (Orlandi 1994).
(§2) Two groups were subjected to pharmacological treatment with propionyl L-carnitine (PLC, 120 mg/Kg p.c. die), one group was treated with an ACE-inhibitor (Enalapril, 1 mg/Kg p.c. die); the two remaining groups were the control. Moreover, some non-balloonized animals were used as blanks.
The animals were sacrificed 3 and 15 days after de-endothelialization. Two hours before sacrifice, all the rats received i.v. a Bromodeoxyuridine solution (BrDU) (45 mg/kg body weight) in order to verify cell proliferation. One hour before sacrifice, some randomly selected animals received 1 ml Blue Evans (1% in 0.9% NaCl solution) in order to evaluate the degree of aorta disruption.
At sacrifice, the animals were anaesthetised with i.p. Nembutal and perfused, after washing with isotonic saline containing 3% Dextran 70, with buffered formalin for 20 minutes. Aortae were isolated, slightly washed in saline and dissected longitudinally. Carotid, heart and small intestine were also excised. All the organs were post-fixed in the same fixative for 24 hours at room temperature.
In order to put in evidence proliferating cells in damaged arteries, serial sections in paraffin of aortae were deparaffined, rehydrated, immersed in a 3% H2O2 solution for 20 minutes and incubated with trypsine (0.05 M in Tris-HCl, pH 7.6) at 37° C. After that, sections were treated with 2N HCl at 37° C. for 30 minutes, washed with 0.1 M sodium tetraborate for 10 minutes, incubated with normal horse serum (Vector) and subsequently with and-BrDU monoclonal antibody (Ylem) for 1 hour. The preparates were then reacted with biotilinated anti-mouse IgG (Vector) and the Streptoavidine-ABC-POD complex (Ylem).
The reaction was evidenced by using diaminobenzidine (DAB) as final chromogen. The count of positive nuclei for BrDU was made on the total number of nuclei. Such count was blind-made by two researchers separately. The difference between the two counts was always lower than 0.5%.
All data were analysed with the T Student's test. The differences between the groups were considered to be significant for P<0.05.

rat aorta intima = assay: Morphometric analysis of intima thickening after mechanical de-endothelialization; type: in vivo, Wistar rat; conditions: 15 days after de-endothelialization, PLC 120 mg/Kg or Enalapril 1 mg/Kg p.c. die; for Intima volume/wall (percentage ratio between intima volume and aorta wall volume): ± s.e.m., preliminary results
Method: as §1, §2
The entity of intima thickening after 15 days was evaluated on Verhoeff-Van Gieson stained sections, using a grid overlapped on the image, consisting of 400 points, 1 cm from each other.
The analysis was made on hystological preparates through a Hamamatsu C3077 camera controlled by a Hamamatsu DVS 3000 image analyser and connected to a Polyvar-Reichert microscope. Morphometric evaluation was made at X116 magnification. The following parameters were evaluated a) relative volume of intima referred to arterial wall; b) relative volume of tunica media referred to arterial wall, by counting the overlapping points on the intima and mean tunica.
3-12 aorta sections were used at different level for each animal. This number was a function of the structure sizes, according to Sach's formula, showing the number of fields necessary to obtain a statistically significant sample.

[2] = tested on: smooth muscular cells (SMC) isolated from aortae of spontaneously hypertensive rats (SHR); assay: DNA synthesis by tritiated thymidine incorporation, SHR SMC; type: cell-based, rat; conditions: culture day 6
Method: (§3) In vitro experiments were carried out to evaluate the effect of propionyl L-carnitine (PLC) on smooth muscular cells (SMC) isolated from aortae of spontaneously hypertensive rats (SHR) and, as control, on SMC isolated from normotensive rats (WKY).
(§4) These in vitro studies evidenced that PLC, when administered during culture exponential growth phase, reduces cell growth, evaluated as cell number/ml, as well as DNA synthesis, evaluated through incorporation of trititated thymidine (Tab. 4 and 5).

[3] = tested on: SMC isolated from normotensive rats (WKY); assay: Apoptotic cell count after Hoechst 33258 staining, WKY SMC; type: cell-based, rat
Method: as §3
(§5) As a further characterisation of smooth muscular cells in the presence of PLC, the percentage of apoptotic cells was measured both in basal conditions and in oxidative stress conditions. Apoptosis evaluation was carried out by counting the number of apoptotic cells present on a total of 1000 cells, after specific DNA staining with Hoechst 33258.
In WKY cultures, apoptosis percentage is negligible (tab. 6)

[4] = tested on: HeLa, uterine cervix tumor; assay: Inhibition of proliferation of neoplastic cells (Trypan Blue count), HeLa; type: cell-based, human; set-up: inhibition of proliferation after removal of PLC: dose or concentration left out as unconfirmed
Method: (§6) Human derived neoplastic cell, obtained from Istituto Zooprofilattico of Brescia, were cultivated. The cells used for the experiment were: U266, multiple myleopma, HeLa, uterine cervix tumor, K562, chronic myeloid leukemia cells. HeLa and K562 were cultivated in RPMI+10% FCS, while those of U266 line were cultivated in RPMI+15% FCS, both media containing Penicilline/Streptomycine (50 U/mL and 50 μg/mL). Cells were plated in 6-wells plates (Falcon). Analysis were performed in cells having 50% confluence.
(§7) Each cell line was treated with PCL according to the folowing schemes:
(§8) a) 1 mM PLC for 24 hours (FIGS. 1-3); 1 mM PLC for 48 hours (FIGS. 1-3);
[…] 4-6).
(§9) At the end of each treatment, cells were counted in Burker chamber in the presence of Trypan Blue 0.5%, diluted 1:2. Count was made for each experimental group on samples coming from three wells.

[5] = tested on: K562, chronic myeloid leukemia cells; assay: Inhibition of proliferation of neoplastic cells (Trypan Blue count), K562; type: cell-based, human
Method: as §6, §7, §8
[…] 4-6).
as §9

[6] = tested on: SMC isolated from normotensive rats (WKY); assay: DNA synthesis by tritiated thymidine incorporation, WKY SMC; type: cell-based, rat; conditions: culture day 6
Method: as §3, §4

[7] = tested on: smooth muscular cells (SMC) isolated from aortae of spontaneously hypertensive rats (SHR); assay: Apoptotic cell count after Hoechst 33258 staining, SHR SMC; type: cell-based, rat
Method: as §3, §5

[8] = tested on: SMC isolated from normotensive rats (WKY); assay: Cell growth (cell number/ml) of cultured aortic SMC from WKY; type: cell-based, rat
Method: as §3, §4

U266, multiple myleopma = assay: Inhibition of proliferation of neoplastic cells (Trypan Blue count), U266; type: cell-based, human
Method: as §6, §7, §8
[…] 4-6).
as §9

[9] = tested on: smooth muscular cells (SMC) isolated from aortae of spontaneously hypertensive rats (SHR); assay: Cell growth (cell number/ml) of cultured aortic SMC from SHR; type: cell-based, rat
Method: as §3, §4

Structure (SMILES): CCOC(=O)[C@H](CCc1ccccc1)N[C@@H](C)C(=O)N1CCC[C@H]1C(=O)O [Enalapril]
- +Nuclei/total nuclei % (anti-bromodeoxyuridine positive) ([1]; intima tunica): No significant differences
- +Nuclei/total nuclei % (anti-bromodeoxyuridine positive) ([1]; intima tunica, listed as enalapril): 2.43 ± 0.39 (c) %
- +Nuclei/total nuclei % (anti-bromodeoxyuridine positive) ([1]; tunica media): No significant differences
- +Nuclei/total nuclei % (anti-bromodeoxyuridine positive) ([1]; tunica media, listed as enalapril): 0.27 ± 0.09%
- Reduction (% to CTR) of intima relative volume (rat aorta intima): 26.14%
- Intima volume/wall (percentage ratio between intima volume and aorta wall volume) (rat aorta intima): 21.96 ± 1.20 ^(e) %

Structure (SMILES): CCC(=O)O[C@H](CC(=O)[O-])C[N+](C)(C)C [PLC, propionyl L-carnitine]
- tritiated thymidine incorporation [2]: 1.81E−05 μCi/μgDNA
- Reduction % of BrDU-positive nuclei against control ([1]; tunica media, 3 days after de-endothelialization, PLC 120 mg/Kg p.c. die): 59.3%
- positive nuclei/total nuclei % (anti-bromodeoxyuridine positive) ([1]; tunica media, 3 days after de-endothelialization, PLC 120 mg/Kg p.c. die, ± s.e.m): 2.59 ± 0.56%
- Reduction (% to CTR) of intima relative volume (rat aorta intima): 31.11%
- Intima volume/wall (percentage ratio between intima volume and aorta wall volume) (rat aorta intima): 20.48 ± 2.73 ^(d) %
- apoptotic cell percentage ([3]; basal conditions): 0%
- apoptotic cell percentage ([3]; oxidative stress): 2%
- inhibition of proliferation with respect to the control ([4]; 1 mM PLC for 24 hours): 25%
- inhibition of proliferation with respect to the control ([4]; 1 mM PLC for 48 hours): 17%
- inhibition of proliferation after removal of PLC ([4]; 24 hours PLC, then fresh medium without the substance): 20%
- inhibition of proliferation with respect to the control ([5]; K562, 1 mM PLC for 24 hours): 37%
- inhibition of proliferation with respect to the control ([5]; K562, 1 mM PLC for 48 hours): 39%
- inhibition of proliferation after removal of PLC ([5]; K562, 24 hours with 1 mM PLC, then fresh medium without the substance): 21%
- tritiated thymidine incorporation [6]: 2.56E−05 μCi/μgDNA
- apoptotic cell percentage ([7]; basal conditions): 2%
- apoptotic cell percentage ([7]; oxidative stress): 10%
- cell number/ml ([8]; culture day 2): 3*10^4 ± 2 /ml
- cell number/ml ([8]; culture day 3): 4*10^4 ± 2 /ml
- cell number/ml ([8]; culture day 4): 6*10^4 ± 2 /ml
- cell number/ml ([8]; culture day 6): 8*10^4 ± 3 /ml
- inhibition of proliferation with respect to the control (U266, multiple myleopma; U266, 1 mM PLC for 24 hours): 46%
- inhibition of proliferation with respect to the control (U266, multiple myleopma; U266, 1 mM PLC for 48 hours): 26%
- inhibition of proliferation after removal of PLC (U266, multiple myleopma; U266, 24 hours with 1 mM PLC, then fresh medium without the substance): 26%
- cell number/ml ([9]; culture day 2): 7*10^4 ± 4 /ml
- cell number/ml ([9]; culture day 3): 4*10^4 ± 2 /ml
- cell number/ml ([9]; culture day 4): 7*10^4 ± 4 /ml
- cell number/ml ([9]; culture day 6): 20*10^4 ± 5 /ml

— patent US20030220363A1, “Use of propionyl L-carnitine for the preparation of a medicament capable of inducing apoptosis” (SIGMA-TAU INDUSTRIE FARMACEUTICHE RIUNITE S.p.A., priority 1998, published 2003)
